Measurements from patent publication US20200345725A1, “Methods and Compositions for Treating Cancer” (Omeros Corporation, priority 2019, published 2020).
Several values for one entry are separate records, joined by “and”; a condition that tells them apart may be missing. Equal entries are not always repeated.

Key:
Format in all cases: cell-based
[1] = biological target: T1, GPR174 (Homo sapiens, UniProt Q9BXC1); assay: CRE-Luc reporter Gs signaling assay with GPR174; set-up: host or cells: HEK293 or CHO cell lines (ATCC); conditions: for Gs pathway in the presence of GPR174 (CRE-Luc reporter): increasing concentrations of compound; for Fold decrease in Gs signaling activity / EC50 / Human GPR174 CRE Activity: nature of the compound (IA, antagonist, NM): pCRE-Luc reporter; for EC50: multiple values = separate experiments
Target sequence in this assay (Q9BXC1 whole entry): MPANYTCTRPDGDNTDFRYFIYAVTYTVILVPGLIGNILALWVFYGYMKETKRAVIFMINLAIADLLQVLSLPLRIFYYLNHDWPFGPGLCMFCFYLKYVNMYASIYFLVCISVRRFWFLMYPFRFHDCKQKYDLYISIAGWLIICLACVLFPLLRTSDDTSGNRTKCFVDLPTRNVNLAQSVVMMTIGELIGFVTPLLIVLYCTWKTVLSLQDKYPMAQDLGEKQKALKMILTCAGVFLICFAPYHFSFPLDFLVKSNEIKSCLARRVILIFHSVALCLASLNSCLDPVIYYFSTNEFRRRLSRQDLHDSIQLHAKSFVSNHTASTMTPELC

[2] = biological target: T2, ADBR2 (Homo sapiens, UniProt P07550); assay: CRE-Luc reporter assay with control receptor ADBR2
T2 construct: host or cells: HEK293 or CHO cell lines (ATCC)
T2 sequence (P07550 whole entry): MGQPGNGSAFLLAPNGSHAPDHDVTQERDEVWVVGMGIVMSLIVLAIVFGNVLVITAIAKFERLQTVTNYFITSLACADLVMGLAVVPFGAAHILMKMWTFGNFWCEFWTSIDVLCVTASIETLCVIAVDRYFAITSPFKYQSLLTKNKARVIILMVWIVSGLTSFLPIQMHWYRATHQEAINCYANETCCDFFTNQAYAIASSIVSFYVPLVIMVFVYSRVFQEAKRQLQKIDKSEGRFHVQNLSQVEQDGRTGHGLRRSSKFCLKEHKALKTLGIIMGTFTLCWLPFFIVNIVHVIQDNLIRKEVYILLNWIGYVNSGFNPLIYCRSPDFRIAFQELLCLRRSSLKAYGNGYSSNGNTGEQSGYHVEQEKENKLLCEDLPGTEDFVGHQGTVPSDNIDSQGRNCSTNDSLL
Protocol: The DNA/lipofectamine 2000 mix (3000 μL) was incubated at room temperature for 30 minutes and then added into a 10 cm culture dish (Corning, NY) containing 70-90% confluent cultured cells, (HEK293 or CHO cell lines (ATCC, VA)), in 15 mL of media. […] The cells were further incubated at 37° C. for various times. The media were removed and the cells lysed.
Compounds were tested in the reporter system with increasing concentrations of GPR174-interacting compounds.
The DNA/lipofectamine 2000 mix (3000 μL) was incubated at room temperature for 30 minutes and then added into a 10 cm culture dish (Corning, NY) containing 70-90% confluent cultured cells, typically HEK293 or CHO cell lines (ATCC, VA), in 15 mL of media. […] Media (26 mL) were added to the detached cells and 120 μL of transfected cells were transferred to each well on a 96-well plate. Increasing concentration of each compound in DMSO (1.2 μl) was added to the cells after plating into the 96-well plate. The cells were further incubated at 37° C. for various times. The media were removed, and the cells lysed.
ADBR2 is a GPCR, like GPR174, that activates the Gs signaling pathway.

[3] = biological target: T1, GPR174; assay: Cellular redistribution assay (CRA) for GPR174; conditions: multiple values = separate experiments
Text: One method for identifying compounds capable of modulating a receptor is using a cellular redistribution assay (“CRA”). Exemplary CRA methods are found in U.S. Pat. No. 7,309,576 issued to O'Dowd et al. and in O'Dowd et al., J. Biomol. Screen. 12:175-85,2007. […] Incorporation of the NLS alters the cellular localization of the GPCR, such that the majority of the NLS-modified receptor is present in the cell interior. An NLS-modified GPCR, when interacting with a functionally active compound, is mostly localized on the cell surface. Thus, it becomes possible to identify receptor modulators without knowledge of the endogenous ligand or a surrogate ligand.
The inventors have identified a number of compounds that inhibit GPR174 using a CRA assay similar to that described in U.S. Pat. No. 7,309,576 and in O'Dowd et al., J. Biomol. Screen. 12:175-85, 2007. These compounds are described in detail below.
The inventors used a CRA similar to that described in U.S. Pat. No. 7,309,576 and O'Dowd et al., J. Biomol. Screen. 12:175-85, 2007 to identify compounds that are capable of interacting with GPR174 using a library of approximately 370,000 chemical entities. Briefly described, the CRA assay described in U.S. Pat. No. 7,309,576 involves artificially inserting a NLS into the dopamine D1 receptor (DRD1), which allows the receptor to traffic from the cell membrane to the cell interior, and that the binding of antagonists to the receptor retained the receptor at the cell surface, while removal of the ligand allowed the receptor to continue to internalize from the cell surface. Both antagonists and agonists that selectively bound the receptor retained the receptor on the plasma membrane. GPR174 constructs were generated for use in a CRA-based compound screening assay. From this screen, the inventors initially identified compounds of formula I-VI, as described herein and included in Table 1.
Target sequence in this assay (Q9BXC1 1-292 limits assumed): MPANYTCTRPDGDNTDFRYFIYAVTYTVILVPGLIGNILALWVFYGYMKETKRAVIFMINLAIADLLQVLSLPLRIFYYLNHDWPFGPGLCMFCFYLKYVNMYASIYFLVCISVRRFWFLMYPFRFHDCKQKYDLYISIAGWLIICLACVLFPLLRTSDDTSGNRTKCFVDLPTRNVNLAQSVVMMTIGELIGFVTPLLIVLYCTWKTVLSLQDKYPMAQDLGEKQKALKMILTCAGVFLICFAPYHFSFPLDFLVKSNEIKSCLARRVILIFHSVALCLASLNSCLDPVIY

Compound | Gs pathway in the presence of GPR174 (CRE-Luc reporter) [1] | Fold decrease in Gs signaling activity [1] | EC50 [1] | Gs pathway in the presence of ADBR2 (CRE-Luc reporter) [2] | EC50 [3] | Human GPR174 CRE Activity: nature of the compound (IA, antagonist, NM) [1]
CCOc1ccc(C2C3=C(CCCC3=O)NC3=C2C(=O)c2ccccc23)cc1 (centres unmarked) [compound 23] | inhibited | 14.1 fold | 400 nM and 900 nM and 1200 nM and 1000 nM | did not inhibit | – | –
S=C(NCc1ccco1)Nc1ccc(I)cc1 [compound 59] | – | – | – | – | – | NM (“NM” refers to “non-modulator.”)
CC1CCN(c2cc(N3CCN(C(=O)c4cccs4)CC3)c([N+](=O)[O-])cc2F)CC1 [compound 12] | – | 3.9 fold | 400 nM and 700 nM | – | – | –
CC(C)C(=O)N1CCN(c2cc(N3CCCCC3C)c(F)cc2[N+](=O)[O-])CC1 (centres unmarked) [compound 16] | – | 2.1 fold | 800 nM | – | – | –
CCC(=O)N1CCN(c2cc(N3CCCCC3)c(F)cc2[N+](=O)[O-])CC1 [compound 9] | – | 2.1 fold | 700 nM and 500 nM | – | > 2000 nM | –

Further lines, with some results ahead:

Gs pathway in the presence of GPR174 (CRE-Luc reporter) [1] | Fold decrease in Gs signaling activity [1] | EC50 [1] | Gs pathway in the presence of ADBR2 (CRE-Luc reporter) [2] | EC50 [3] | Compound | Human GPR174 CRE Activity: nature of the compound (IA, antagonist, NM) [1]
inhibited | 9.2 fold | 4400 nM | did not inhibit | – | O=C1CCCC2=C1C(c1ccc(OCCO)cc1)C1=C(N2)c2ccccc2C1=O (centres unmarked) [compound 33] | –
did not modulate | – | – | did not modulate | – | Cc1ccc(-c2nnc(Nc3ccccc3)c3ccccc23)cc1S(N)(=O)=O [compound 19] | Antagonist or allosteric modulator
– | 2.8 fold | 4400 nM | – | – | O=C1CCCC2=C1C(c1cccc(O)c1)C1=C(N2)c2ccccc2C1=O (centres unmarked) [compound 24] | –
– | 8.6 fold | 2700 nM | – | – | O=C1CCCC2=C1C(c1ccc([N+](=O)[O-])cc1)C1=C(N2)c2ccccc2C1=O (centres unmarked) [compound 38] | –
